In patent publication US7919517B2, “Indazole derivatives” (Kyowa Hakko Kirin Co., Ltd., priority 2003, dated 2011):
Structures can show the parent of a compound that is named as a salt.

Legend:
Type in all cases: cell-based
[1] = system: human acute myeloid leukemia cell line MV-4-11; assay: Cytostatic activity on leukemia cell line MV-4-11 (WST-1); conditions: 72 hours, MV-4-11 cells; for inhibition at 10 µM: Homo sapiens, MV4-11, 10 μmol/L, read-out: cytostatic rate MV-4-11 (%) (10 μmol/L)
Experimental: (§1) The cytostatic rates of a test compound on human acute myeloid leukemia cell lines MV-4-11 and ML-1, and human chronic myeloid leukemia cell line K562 were determined in the following manner.
(§2) Each cell was cultured using Roswell Park Memorial Institute's Medium (RPMI) 1640 (Gibco, Catalog No. 11875-093) containing 10% fetal bovine serum (Gibco, Catalog No. 10437-028) and 1% penicillin/streptomycin (1:1) (Gibco, Catalog No. 15140-122). Each 80 μL of the MV-4-11 cell having a concentration of 7.5×10^4 cells/mL (or the ML-1 cell or K562 cell having a concentration of 2.5×10^4 cells/mL) was inoculated to wells of a TC MICROWELL 96U plate (Nalge Nunc International, Catalog No. 163320) and was cultured in a 5% carbon dioxide gas incubator at 37° C. for 4 hours. As a blank, only RPMI medium (80 μL) was added to a well. Each 20 μL of a solution of the test compound in dimethyl sulfoxide (DMSO) which was prepared to make the final concentration to 10 μmol/L, was added to the MV-4-11 cell, ML-1 cell and K562 cell, respectively. Each 20 μL of DMSO was added to the control well and the blank well to […]. After adding the test compound, the cells were incubated in a 5% carbon dioxide gas incubator at 37° C. for 72 hours. After adding 20 μL of WST-1 reagent {4-[3-(4-iodophenyl)-2-(4-nitrophenyl)-2H-5-tetrazolio]-1,3-benzene disulfonate sodium salt} (Roche Diagnostics K.K., Catalog No. 1644807) diluted to 50% with RPMI medium, the cells were further incubated at 37° C. for 2 hours. Then, the absorbances at 450 nm (reference wavelength: 690 nm) were determined with a microplate spectrophotometer SPECTRA max 340PC (Molecular Devices Corporation). The relative growth (%) of a well to which the test compound had been added was determined while setting the absorbance of a well to which not the test compound but DMSO alone had been added (control) at 100% and that of a well containing RPMI medium alone at 0%. The cytostatic rate (%) of the test compound was determined by subtracting the calculated relative growth from 100.

[2] = system: human colon cancer cell line Colo205; assay: Cytostatic activity on solid carcinoma cell line Colo205 (WST-1); conditions: 72 hours, Colo205 cells; for inhibition at 10 µM: Homo sapiens, COLO 205, 10 μmol/L, read-out: cytostatic rate Colo205 (%) (10 μmol/L)
Experimental: as §2
The cytostatic rate of a test compound on the human colon cancer cell line Colo205 was determined in the following manner.
The cell was cultured using Roswell Park Memorial Institute's Medium (RPMI) 1640 (Gibco, Catalog No. 11875-093) containing 10% fetal bovine serum (Gibco, Catalog No. 10437-028) and 1% penicillin/streptomycin (1:1) (Gibco, Catalog No. 15140-122). Each 80 μL of the Colo205 having a concentration of 1.25×10^4 cells/mL was inoculated to wells of a TC MICROWELL 96F plate (Nalge Nunc International, Catalog No. 167008) and was cultured in a 5% carbon dioxide gas incubator at 37° C. for 24 hours. As a blank, only RPMI (80 μL) was added to a well. Each 20 μL of a solution of the test compound in DMSO which was prepared to make the final concentration to 10 μmol/L, was added to the Colo205 cell. Each 20 μL of DMSO was added to the control well and the blank well to […]. After adding the test compound, the cell was incubated in a 5% carbon dioxide gas incubator at 37° C. for 72 hours. The cytostatic rate (%) was then determined in the same way as the leukemia cell lines.

[3] = system: human chronic myeloid leukemia cell line K562; assay: Cytostatic activity on leukemia cell line K562 (WST-1); conditions: 72 hours, K562 cells; for inhibition at 10 µM: Homo sapiens, 10 μmol/L, read-out: cytostatic rate K562 (%) (10 μmol/L)
Experimental: as §1, §2

[4] = system: human acute myeloid leukemia cell line ML-1; assay: Cytostatic activity on leukemia cell line ML-1 (WST-1); conditions: 72 hours, ML-1 cells; for inhibition at 10 µM: Homo sapiens, ML1, 10 μmol/L, read-out: cytostatic rate ML-1 (%) (10 μmol/L)
Experimental: as §1, §2

Compound | inhibition at 10 µM [1] | inhibition at 10 µM [2] | inhibition at 10 µM [3] | inhibition at 10 µM [4] | cytostatic rate MV-4-11 (%) (10 μmol/L) [1] | cytostatic rate Colo205 (%) (10 μmol/L) [2] | cytostatic rate K562 (%) (10 μmol/L) [3] | cytostatic rate ML-1 (%) (10 μmol/L) [4]
CC(=O)N1CCN(C(=O)c2ccc(/C=C/c3n[nH]c4ccccc34)cc2C)CC1 [Compound 73, (E)-4-acetyl-1-{2-methyl-4-[2-(1H-indazol-3-yl)vinyl]benzoyl}piperazine] | 97% | 89% | 68% | 87% | – | – | – | –
CS(=O)(=O)N1CCN(C(=O)c2ccc(/C=C/c3n[nH]c4ccccc34)cc2)CC1 [Compound 47, (E)-1-{4-[2-(1H-indazol-3-yl)vinyl]benzoyl}-4-(methanesulfonyl)piperazine] | 97% | 91% | 88% | 88% | – | – | – | –
CN(C)C(=O)c1ccc(/C=C/c2n[nH]c3ccccc23)cc1 [Compound 1, (E)-N,N-Dimethyl-4-[2-(1H-indazol-3-yl)vinyl]benzamide] | 98% | – | 95% | 93% | – | – | – | –
NCC(=O)N1CCN(C(=O)c2ccc(/C=C/c3n[nH]c4ccccc34)cc2)CC1 [Compound 61, (E)-4-aminoacetyl-1-{4-[2-(1H-indazol-3-yl)vinyl]benzoyl}piperazine hydrochloride] | 98% | 87% | 85% | 79% | – | – | – | –
CC(C)NC(=O)CN1CCN(C(=O)c2ccc(/C=C/c3n[nH]c4ccccc34)cc2)CC1 [Compound 135, (E)-1-{4-[2-(1H-indazol-3-yl)vinyl]benzoyl}-4-[2-oxo-2-(isopropylamino)ethyl]piperazine dihydrochloride] | 99% | 87% | 93% | 79% | – | – | – | –
O=C(c1ccc(/C=C/c2n[nH]c3ccccc23)cc1)N1CCN(c2c(N3CCCCC3)c(=O)c2=O)CC1 [Compound 155, (E)-3-piperidino-4-{[4-(2-(1H-indazol-3-yl)vinyl)benzoyl]piperazin-1-yl}-3-cyclobutene-1,2-dione] | – | – | – | – | 97% | 88% | 96% | 79%
CC(C)(C)CC(=O)N1CCN(C(=O)c2ccc(/C=C/c3n[nH]c4ccccc34)cc2)CC1 [Compound 78, (E)-4-(3,3-dimethylbutyryl)-1-{4-[2-(1H-indazol-3-yl)vinyl]benzoyl}piperazine] | 98% | 82% | 90% | 64% | – | – | – | –
CC(C)C(=O)N1CCN(C(=O)c2ccc(/C=C/c3n[nH]c4ccccc34)cc2)CC1 [Compound 56, (E)-4-isobutyryl-1-{4-[2-(1H-indazol-3-yl)vinyl]benzoyl}piperazine] | 98% | 88% | 87% | 78% | – | – | – | –
NC(=O)C1CCN(C(=O)c2ccc(/C=C/c3n[nH]c4ccccc34)cc2)CC1 [Compound 86, (E)-1-{4-[2-(1H-indazol-3-yl)vinyl]benzoyl}piperidine-4-carboxamide] | 98% | 89% | 88% | 87% | – | – | – | –
CS(=O)(=O)Nc1cc(/C=C/c2n[nH]c3ccccc23)ccc1OCCN1CCOCC1 [Compound 7, (E)-N-{5-[2-(1H-Indazol-3-yl)vinyl]-2-(2-morpholinoethoxy)phenyl}methanesulfonamide] | 97% | 89% | 98% | 97% | – | – | – | –
CNC(=O)c1ccc(/C=C/c2n[nH]c3ccccc23)cc1 [Compound 14, (E)-N-Methyl-4-[2-(1H-indazol-3-yl)vinyl]benzamide] | 76% | – | 98% | 84% | – | – | – | –
CN1CCC(C(=O)N2CCN(C(=O)c3ccc(/C=C/c4n[nH]c5ccccc45)cc3)CC2)CC1 [Compound 143, (E)-4-[(1-methylpiperidin-4-yl)carbonyl]-1-{4-[2-(1H-indazol-3-yl)vinyl]benzoyl}piperazine] | 100% | 92% | 95% | 84% | – | – | – | –
CCN(CC)CCNC(=O)c1ccc(/C=C/c2n[nH]c3ccccc23)cc1 [Compound 63, (E)-N-[2-(diethylamino)ethyl]-4-[2-(1H-indazol-3-yl)vinyl]benzamide] | 98% | 88% | 76% | 87% | – | – | – | –
CC(C)(O)C(=O)N1CCN(C(=O)c2ccc(/C=C/c3n[nH]c4ccccc34)cc2)CC1 [Compound 68, (E)-4-(2-methyl-2-hydroxypropionyl)-1-{4-[2-(1H-indazol-3-yl)vinyl]benzoyl}piperazine] | 97% | 90% | 91% | 79% | – | – | – | –
CCOC(=O)N1CCN(C(=O)c2ccc(/C=C/c3n[nH]c4ccccc34)cc2)CC1 [Compound 32, (E)-1-{4-[2-(1H-indazol-3-yl)vinyl]benzoyl}-4-ethoxycarbonylpiperazine] | 94% | 85% | 86% | 80% | – | – | – | –
O=C(c1ccc(/C=C/c2n[nH]c3ccccc23)cc1)N1CCNCC1 [Compound 18, (E)-1-{4-[2-(1H-indazol-3-yl)vinyl]benzoyl}piperazine] | 98% | 85% | 91% | 76% | – | – | – | –
O=C(c1ccc(/C=C/c2n[nH]c3ccccc23)cc1)N1CCOCC1 [Compound 9, (E)-1{4-[2-(1H-indazol-3-yl)vinyl]benzoyl}morpholine] | – | – | – | – | 91% | – | 98% | 90%
N[C@H]1CCN(C(=O)c2ccc(/C=C/c3n[nH]c4ccccc34)cc2)C1 [Compound 159, (S)-(E)-1-{4-[2-(1H-indazol-3-yl)vinyl]benzoyl}-3-aminopyrrolidine] | 99% | 92% | 93% | 86% | – | – | – | –
O=C(NN1CCN(C(=O)c2ccc(/C=C/c3n[nH]c4ccccc34)cc2)CC1)N1CCOCC1 [Compound 150, (E)-1-{4-[2-(1H-indazol-3-yl)vinyl]benzoyl}-4-(morpholinocarbonylamino)piperazine] | 97% | 88% | 90% | 67% | – | – | – | –
NC(=O)c1cc(/C=C/c2n[nH]c3ccccc23)ccc1OCCN1CCOCC1 [Compound 8, (E)-5-[2-(1H-Indazol-3-yl)vinyl]-2-(2-morpholinoethoxy)benzamide] | 95% | – | 95% | 84% | – | – | – | –
CC(=O)N1CCN(C(=O)c2ccc(/C=C/c3n[nH]c4ccccc34)cc2)CC1 [Compound 13, (E)-4-Acetyl-1-{4-[2-(1H-indazol-3-yl)vinyl]benzoyl}piperazine] | 94% | – | 99% | 90% | – | – | – | –
Cl.O=C(c1ccc(/C=C/c2n[nH]c3ccccc23)cc1)N1CCC2(CC1)OCCO2 [Compound 16, (E)-4-ethylenedioxy-1-{4-[2-(1H-indazol-3-yl)vinyl]benzoyl}piperidine hydrochloride] | – | – | – | – | 89% | – | 94% | 97%
